Measurements published in ChEMBL document CHEMBL1681714, “Organelle-selective energy transfer: a fluorescent indicator of intracellular environment” (Bioorg Med Chem Lett, 2011).

Columns and labels:
Conditions in all cases: 0.5 h
[1] = Drug uptake in rat Clone 9 cells assessed as accumulation in lysosomes after 30 mins by fluorescence microscopy; format: ADME, cell-based
[2] = Drug uptake in rat Clone 9 cells assessed as accumulation in endoplasmic reticulum after 30 mins by fluorescence microscopy; format: ADME, cell-based
[3] = Drug uptake in rat Clone 9 cells assessed as localization to endoplasmic reticulum after 30 mins by fluorescence microscopy; format: ADME, cell-based
[4] = Drug uptake in rat Clone 9 cells assessed as accumulation in mitochondria after 30 mins by fluorescence microscopy; format: ADME
[5] = Drug uptake in rat Clone 9 cells assessed as accumulation in cytoplasm after 30 mins by fluorescence microscopy; format: ADME, cell-based

Measured: Drug uptake

COc1ccccc1C1=[N+]2C(=C(c3ccc(C#Cc4ccc(C5=[N+]6C(=Cc7c(C)c(S(=O)(=O)[O-])c(C)n7[B-]6(F)F)C(=O)N5C)cc4)cc3OCC(=O)O)c3ccc(-c4ccccc4OC)n3[B-]2(F)F)C=C1.[Na+]
Active: [1] | [2] | [3]

COc1cc(C#Cc2ccc3c(c2)C(C)(C)C(/C=C/C=C2/N(CCCCCC(=O)O)c4ccccc4C2(C)C)=[N+]3C)ccc1C1=C2C(C)=CC(C)=[N+]2[B-](F)(F)n2c(C)cc(C)c21.[I-]
not listed: [2]
Active: all other assays above
